For this assay, the system named is Lmna G609G/+ mouse. Kind of assay: Body weight of Lmna G609G/+ mice. In kind it is in vivo. Particulars: oral administration, relative body weight; for Lmna G609G/+ body weight, Ave: group average; for Lmna G609G/+ body weight: individual mouse. The source says:
Fig. 3 In vivo favorable effect of SLC-D011. A Gross morphology of Lmna^G609G/G609G mice (10 weeks old) was ameliorated after injection with SLC-D011. At the same age, the experimental group (D011) of mice were larger than vehicle-injected control (Con) subjects regardless of gender. B, C SLC-D011 increases body weight B and extends life span C of Lmna^G609G/G609G progeria model mouse (Con: n = 8; SLC-D011: n = 8). Compared with 14.8 weeks of average (ave) life span with maximum (max) life span of 15.5 weeks, 20 mg/kg of intraperitoneal (i.p) injection (twice a week) of SLC-D011 could extend the life span upto 19 weeks (max = 21 weeks). Lmna^G609G/G609G mice were injected with SLC-D011 from age of 5-week old, *p < 0.05. D Gross morphology of SLC-D011 injected Lmna^G609G/+ mouse. […] E SLC-D011 increases body weights of Lmna^G609G/+ mice (Con: n = 10; SLC-D011: n = 11), *p < 0.05. F Favorable effect of SLC-D011 on life span of Lmna^G609G/+ mice. Compared with vehicle-injected control group (ave = 46.7 weeks and max = 48 weeks), SLC-D011 treatment obviously extended the average life span to 63 weeks (max = 64 weeks). The injection was started from 32 weeks old, **p < 0.001. “Con” means vehicle (a solvent composed of DMSO and PBS)-injected mouse group. TEXT PRINTED IN THE PICTURE: (C) D011: Kaplan-Meier survival curve in Lmna^G609G/G609G: Ave=19; Kaplan-Meier survival curve in Lmna^G609G/G609G: Max=21 | (F) D011: Kaplan-Meier survival curve in Lmna^G609G/+: Ave=63; Kaplan-Meier survival curve in Lmna^G609G/+: Max=64 DOUBTS OF THE COPYIST ABOUT THIS PICTURE: Panels C and F: the Ave/Max labels are not printed with a group name. They are assigned to D011 (solid curve) or Con (dashed curve) only by their position beside the curves. / Panel C Ave=14.8, Max=15.5 and panel F Ave=46.7, Max=48 stand beside the dashed Con curve. They are left out because Con is the control group, not a substance. / No unit is printed with the Ave/Max values. Only the axis reads Age (weeks).
Animal experiments were performed in a facility certified by the Association for Assessment and Accreditation of Laboratory Animal Care in compliance with animal policies approved by Pusan National University. The mouse work was performed under the study protocol PNU-2019-2181, as approved by the Institutional Animal Care and Use Committee. Lmna^G609G/609G mice were generated by timed mating of heterozygous Lmna^G609G/+ provided by Carlos López-Otín (Universidad de Oviedo, Asturias, Oviedo, Spain). SLC-D011 was mixed with dimethyl sulfoxide (DMSO) and phosphate-buffered saline (PBS). It was then intraperitoneally injected into mice (20 mg/kg twice per week from 5-week-old). SLC-D011 and lonafarnib were orally administrated to mice daily at a concentration of 10 mg/ml in monoolein-based solution. Lonafarnib was generously provided by Merck, the Progeria Research Foundation (PRF) and the PRF Lonafarnib Pre-clinical Drug Supply Program. Control mice were treated with monoolein-based solution alone in the same way. Lmna^G609G/609G mice were treated with clear chemical solution throughout the life span, starting from 5 weeks of age. Lmna^G609G/+ mice were treated via intraperitoneal and oral administrations, starting from 32 weeks of age.
Fig. S10. Or al administration of SLC-D011 suppresses premature aging features of LmnaG609G/+ mi c e . A.
Gross morphology of SLC-D011 treated Lmna G609G/+ mice at 36 weeks old. B. Oral administration of SLC-
D011 increases body weight s of LmnaG609G/+ mi c e (untreated: n=11; SLC-D011: n=12), * p<0.05. C. […]
intensity of H3K9me3 levels in lung, liver, and kidney tissues of age-matched Lmn a +/+ mouse, untreated
LamnG609G/+ mouse and two progerinin- treated LmnaG609G/+ mice (n = 2 independent experiments; one
Student’s t -test), **p < 0.001,*p< 0.05, N.S: not significant .AU, arbitrary units.
Fig. S12. […] A. SLC-D011, compar ed to lonafarnib, reduces […]

The results in this text go back to paper PMC7782499, “Progerinin, an optimized progerin-lamin A binding inhibitor, ameliorates premature senescence phenotypes of Hutchinson-Gilford progeria syndrome” (Communications Biology, 2021).

Where “and” joins values, the source holds several entries; their conditions need not be identical. Identical values can stand only once.

On to `NC(=O)N1CCC(CC(=O)N2CCC([C@H]3c4ncc(Br)cc4CCc4cc(Cl)cc(Br)c43)CC2)CC1` [lonafarnib, reference compound], for which the “Lmna G609G/+ body weight, Ave” value (week 36) amounted to 1; the “Lmna G609G/+ body weight, Ave” value (week 38) amounted to 0.9406; the “Lmna G609G/+ body weight, Ave” value (week 40) came to 0.9202; the “Lmna G609G/+ body weight, Ave” value (week 42) was 0.88; the “Lmna G609G/+ body weight, Ave” value (week 44) is 0.8157; the “Lmna G609G/+ body weight, Ave” value (week 46) came out at 0.7411. Also, the “Lmna G609G/+ body weight, Ave” value runs as follows: (week 48) 0.6808; (week 50) 0.6132; (week 52) 0.4605; (week 54) 0.1559. In addition, the “Lmna G609G/+ body weight” value (week 36) worked out at 1; the “Lmna G609G/+ body weight” value (week 38) is 0.9091 and 0.9 and 0.96 and 0.95 and 0.913 and 0.9565; the “Lmna G609G/+ body weight” value (week 40) was 0.8636 and 0.85 and 0.92 and 0.9 and 0.96 and 0.913 and 0.9565 and 0.95 and 0.9091; the “Lmna G609G/+ body weight” value (week 42) is 0.8636 and 0.8 and 0.84 and 0.85 and 0.92 and 0.913 and 0.88 and 0.9091; the “Lmna G609G/+ body weight” value (week 44) is 0.7727 and 0.7 and 0.8 and 0.88 and 0.7273 and 0.8182 and 0.85; the “Lmna G609G/+ body weight” value (week 46) is 0.7273 and 0.65 and 0.72 and 0.75 and 0.76 and 0.7 and 0.8182 and 0.8. For the same compound, the “Lmna G609G/+ body weight” value was 0.6818 and 0.6 and 0.64 and 0.75 and 0.68 and 0.7 and 0.7273 and 0.72 (week 48); 0.5909 and 0.55 and 0.6 and 0.7 and 0.64 and 0.5 and 0.6957 and 0.65 and 0.6818 (week 50); 0.4545 and 0 and 0.4 and 0.55 and 0.48 and 0.5217 and 0.6957 and 0.5 and 0.44 (week 52); 0.4545 and 0 and 0.44 and 0.5217 (week 54).
